US4617184A, “99m Tc-1,2-dihydroxy-1,2-bis(dihydroxyphosphinyl)ethane complex for skeleton scanning” (priority 1984, dated 1986)

Key:
[1] = Acute and chronic toxicity of DHPE in rodents; format: in vivo; details: injected doses 5 to 250 mg per kg of body weight
Text: The amount of complexing agent required to be injected into a test animal or human patient for a satisfactory skeleton scintigraphy is three orders of magnitude smaller than the highest tested dose.

[2] = Organ distribution of ^99m Tc-DHPE (freeze dried kit) in rats, i.v. tail vein; format: in vivo, Hooded strain rats; set-up: Dose per Organ: unit not given here
Procedure: Twenty five milliliters of a sterile aqueous solution of 55.5 mg of DHPE were mixed with 12.5 mL of a freshly prepared sterile aqueous solution containing 0.1 mg of SnCl2 per milliliter and with 12.5 mL of a sterile aqueous solution of sodium acetate 10% W/V. Portions of 2 mL each of the resulting solution were transferred through a Millipore filter of 0.22 micron pore size into pharmaceutical vials. The vials were freeze dried for 24 hours and were sealed in vacuum. Four milliliters of saline solution of Na^+99m TcO4^- (20 millicuries Tc-99m) were added to each vial. The vial was vigorously shaken, and then allowed to stand for five minutes at normal ambient temperature.
Two hundred fifty microliters of the above solution of the radiopharmaceutical ^99m Tc-DHPE were injected i.v. (intravenously) in the tail vein of each of six Hooded strain, closed colony, random breeding rats. The rats were sacrificed at the following time periods 1 hr, 2 hr, 4 hr, 6 hr, 12 hr, and 24 hrs. The organs of each rat were isolated and the distribution of Tc-99m determined by assay with a single channel analyzer equipped with a well type NaI(T1) scintillation detector.
The experimental error in the distribution vs. time data for the ^99m Tc-DHPE complex was minimized by averaging six runs under identical conditions, always with the Hooded strain rats. The effect of organ geometry on radioactivity counting efficiency was taken into account. Corrections were also made so that, upon extrapolation back to time zero, the summation of activity in the organs was equal to the injected activity (i.e. by comparison to standards).

[3] = Distribution in rats of the complex prepared by electrochemical reduction; format: in vivo, Hooded strain rats; details: i.v. tail vein, electrochemically prepared complex
Procedure: Four milliliters of a sterile aqueous solution containing 1.5 mg of DHPE, 20 mg of CH3 COONa and 10 mCi of Na^+99m TcO4^- were added to a sterile cell equipped with tin electrodes. An electrical charge of 5×10^-2 coulombs (20 sec×2.5 mA) was passed through to produce the ^99m Tc-DHPE complex. Paper chromatography of the solution was run according to the method outlined in Example 1. The determined radiochemical purity of the ^99m Tc-DHPE compound was 98%. The complex was assayed by intravenous injections into the tail veins of Hooded strain rats as in Example 1, the animals being sacrificed at 1, 2, 4, 6, 12, and 24 hours.

[4] = Gamma camera bone imaging in anesthetized rabbit; format: in vivo
Procedure: Two milliliters of a sterile saline solution of Na^+99m TcO4^- (IO millicuries Tc-99m) were added to a pharmaceutical vial containing 2 mL of a sterile aqueous solution containing 2.2 mg of DHPE, 50μg of SnCl2 and 50 mg of CH3 COONa. The vial was vigorously shaken, then allowed to stand for five minutes at room temperature. Paper chromatography of the solution was run according to the method outlined in Example 1 and only 2% unreacted pertechnetate was found.
Bone imaging was carried out by intravenous injection of 0.5 milliliters of this solution into the ear vein of an anesthetized rabbit positioned under a gamma camera. […] As time passed the quality of the images improved. […] Less than 30% of the initial radioactivity in the blood was detected in the blood 30 minutes after injection.

## O=P(O)(O)C(O)C(O)P(=O)(O)O (centres unmarked) [DHPE, 1,2-dihydroxy-1,2-bis(dihydroxyphosphinyl)ethane]
[1]
  deaths or adverse effects (acute and chronic toxicity): no deaths or adverse effects

## ^99m Tc-1,2-Dihydroxy-1,2-bis(dihydroxyphosphinyl)ethane Complex [^99m Tc-DHPE]
[2]; ADRENALS, 1 hr
  Dose per Organ: 0.006 ± 0.006
[2]; ADRENALS, 2 hr
  Dose per Organ: 0.007 ± 0.005
[2]; ADRENALS, 4 hr
  Dose per Organ: 0.003 ± 0.001
[2]; ADRENALS, 6 hr
  Dose per Organ: 0.003 ± 0.001
[2]; ADRENALS, 12 hr
  Dose per Organ: 0.001 ± 0.000
[2]; ADRENALS, 24 hr
  Dose per Organ: 0.001 ± 0.000
[2]; BLOOD, 1 hr
  Dose per Organ: 0.742 ± 0.384
[2]; BLOOD, 2 hr
  Dose per Organ: 0.895 ± 0.515
[2]; BLOOD, 4 hr
  Dose per Organ: 0.643 ± 0.414
[2]; BLOOD, 6 hr
  Dose per Organ: 0.322 ± 0.067
[2]; BLOOD, 12 hr
  Dose per Organ: 0.312 ± 0.209
[2]; BLOOD, 24 hr
  Dose per Organ: 0.104 ± 0.015
[2]; BONE, 1 hr
  Dose per Organ: 44.426 ± 2.556
[2]; BONE, 2 hr
  Dose per Organ: 45.722 ± 3.411
[2]; BONE, 4 hr
  Dose per Organ: 53.447 ± 2.828
[2]; BONE, 6 hr
  Dose per Organ: 47.673 ± 6.612
[2]; BONE, 12 hr
  Dose per Organ: 42.362 ± 4.449
[2]; BONE, 24 hr
  Dose per Organ: 43.317 ± 2.825
[2]; FECES, 1 hr
  Dose per Organ: 0.034 ± 0.054
[2]; FECES, 2 hr
  Dose per Organ: 0.053 ± 0.088
[2]; FECES, 4 hr
  Dose per Organ: 0.394 ± 0.343
[2]; FECES, 6 hr
  Dose per Organ: 0.570 ± 0.205
[2]; FECES, 12 hr
  Dose per Organ: 0.848 ± 0.601
[2]; FECES, 24 hr
  Dose per Organ: 3.149 ± 1.799
[2]; HEART, 1 hr
  Dose per Organ: 0.022 ± 0.008
[2]; HEART, 2 hr
  Dose per Organ: 0.026 ± 0.012
[2]; HEART, 4 hr
  Dose per Organ: 0.018 ± 0.008
[2]; HEART, 6 hr
  Dose per Organ: 0.015 ± 0.004
[2]; HEART, 12 hr
  Dose per Organ: 0.011 ± 0.005
[2]; HEART, 24 hr
  Dose per Organ: 0.006 ± 0.001
[2]; KIDNEYS, 1 hr
  Dose per Organ: 1.523 ± 0.371
[2]; KIDNEYS, 2 hr
  Dose per Organ: 1.782 ± 0.365
[2]; KIDNEYS, 4 hr
  Dose per Organ: 1.441 ± 0.277
[2]; KIDNEYS, 6 hr
  Dose per Organ: 2.716 ± 0.365
[2]; KIDNEYS, 12 hr
  Dose per Organ: 3.018 ± 0.825
[2]; KIDNEYS, 24 hr
  Dose per Organ: 1.187 ± 0.119
[2]; LARGE INTESTINE, 1 hr
  Dose per Organ: 1.548 ± 1.380
[2]; LARGE INTESTINE, 2 hr
  Dose per Organ: 2.210 ± 1.789
[2]; LARGE INTESTINE, 4 hr
  Dose per Organ: 2.906 ± 3.009
[2]; LARGE INTESTINE, 6 hr
  Dose per Organ: 3.209 ± 0.684
[2]; LARGE INTESTINE, 12 hr
  Dose per Organ: 0.648 ± 0.615
[2]; LARGE INTESTINE, 24 hr
  Dose per Organ: 0.415 ± 0.448
[2]; LIVER, 1 hr
  Dose per Organ: 0.095 ± 0.018
[2]; LIVER, 2 hr
  Dose per Organ: 0.184 ± 0.049
[2]; LIVER, 4 hr
  Dose per Organ: 0.187 ± 0.032
[2]; LIVER, 6 hr
  Dose per Organ: 0.168 ± 0.044
[2]; LIVER, 12 hr
  Dose per Organ: 0.131 ± 0.022
[2]; LIVER, 24 hr
  Dose per Organ: 0.134 ± 0.030
[2]; LUNGS, 1 hr
  Dose per Organ: 0.104 ± 0.033
[2]; LUNGS, 2 hr
  Dose per Organ: 0.149 ± 0.105
[2]; LUNGS, 4 hr
  Dose per Organ: 0.121 ± 0.029
[2]; LUNGS, 6 hr
  Dose per Organ: 0.032 ± 0.007
[2]; LUNGS, 12 hr
  Dose per Organ: 0.022 ± 0.015
[2]; LUNGS, 24 hr
  Dose per Organ: 0.044 ± 0.024
[2]; MUSCLE, 1 hr
  Dose per Organ: 1.138 ± 0.511
[2]; MUSCLE, 2 hr
  Dose per Organ: 2.371 ± 1.206
[2]; MUSCLE, 4 hr
  Dose per Organ: 2.193 ± 0.974
[2]; MUSCLE, 6 hr
  Dose per Organ: 4.216 ± 2.815
[2]; MUSCLE, 12 hr
  Dose per Organ: 2.139 ± 0.389
[2]; MUSCLE, 24 hr
  Dose per Organ: 2.699 ± 1.989
[2]; SMALL INTESTINE, 1 hr
  Dose per Organ: 0.963 ± 0.868
[2]; SMALL INTESTINE, 2 hr
  Dose per Organ: 1.963 ± 2.085
[2]; SMALL INTESTINE, 4 hr
  Dose per Organ: 1.009 ± 1.243
[2]; SMALL INTESTINE, 6 hr
  Dose per Organ: 0.495 ± 0.205
[2]; SMALL INTESTINE, 12 hr
  Dose per Organ: 0.318 ± 0.113
[2]; SMALL INTESTINE, 24 hr
  Dose per Organ: 0.091 ± 0.033
[2]; SPLEEN, 1 hr
  Dose per Organ: 0.020 ± 0.007
[2]; SPLEEN, 2 hr
  Dose per Organ: 0.026 ± 0.007
[2]; SPLEEN, 4 hr
  Dose per Organ: 0.020 ± 0.003
[2]; SPLEEN, 6 hr
  Dose per Organ: 0.022 ± 0.007
[2]; SPLEEN, 12 hr
  Dose per Organ: 0.008 ± 0.002
[2]; SPLEEN, 24 hr
  Dose per Organ: 0.010 ± 0.004
[2]; STOMACH, 1 hr
  Dose per Organ: 0.288 ± 0.137
[2]; STOMACH, 2 hr
  Dose per Organ: 0.388 ± 0.176
[2]; STOMACH, 4 hr
  Dose per Organ: 0.226 ± 0.243
[2]; STOMACH, 6 hr
  Dose per Organ: 0.152 ± 0.148
[2]; STOMACH, 12 hr
  Dose per Organ: 0.082 ± 0.023
[2]; STOMACH, 24 hr
  Dose per Organ: 0.040 ± 0.029
[2]; URINE, 1 hr
  Dose per Organ: 28.584 ± 5.562
[2]; URINE, 2 hr
  Dose per Organ: 28.295 ± 1.829
[2]; URINE, 4 hr
  Dose per Organ: 31.469 ± 4.991
[2]; URINE, 6 hr
  Dose per Organ: 24.033 ± 5.995
[2]; URINE, 12 hr
  Dose per Organ: 6.519
[2]; URINE, 24 hr
  Dose per Organ: 8.600
[2]; rats, i.v.
  excretion: mainly via the kidneys to urine
  removal from the blood: fast removal
[2]; rats, i.v., in comparison to other organs or tissues
  concentration to the skeleton: fast and high concentration to the skeleton
[3]
  excretion: mainly to the urine
  skeleton uptake: rapid skeleton uptake
[3]; effect on bone specificity
  uptake by other organs: did not detract significantly from bone specificity
[4]; 30 minutes after injection
  initial radioactivity in the blood detected in the blood: Less than 30%
[4]; i.v. ear vein
  removal of the radiopharmaceutical from the blood: fast removal
[4]; i.v. ear vein, 1 to 2.5 hrs post injection
  quality of skeleton images: Excellent images of the skeleton
[4]; i.v. ear vein, thirty minutes post injection
  skeleton visualization: clearly visualized
